Source: article PMC10307885, “A Phase 1/2 trial of SRA737 (a Chk1 inhibitor) administered orally in patients with advanced cancer” (British Journal of Cancer, 2023)
“And” between values parts separate entries of the source, which are not always exact repeats. Equal entries are not always repeated. “Also recorded” adds a separate entry of the source. Where two headings read alike, the source gives them in different places.

Assays:
[1] = Plasma SRA737 pharmacokinetics (LC-MS assay, non-compartmental methods); type: in vivo, human; conditions: for Cmax / AUC(0-t) / Tmax / Vd/F / half-life: human, oral; for AUC(0-t): read-out: AUC0-24; for Tmax / Vd/F / half-life: plasma
Method: Serial sampling of blood for PK assessment was conducted before and after dosing with single-agent SRA737 (9 time points over 48 h) on Day −7 to Day −4 and on Cycle 1 Day 22; in addition, samples were drawn pre-dose on Days 1, 8, and 15 of Cycle 1, and pre-dose on Day 1 of each subsequent cycle. Plasma SRA737 concentrations were quantified using a fully validated liquid chromatography-mass spectrometry assay with a lower limit of quantitation of 5 ng/ml as previously described.
Safety and response variables were summarized using descriptive statistics and PK parameters were determined using non-compartmental methods. A concentration-effect model was used to evaluate the relationship between plasma SRA737 concentrations and the mean change from baseline in QT interval corrected for heart rate using Fridericia’s formula (QTcF) in time-matched ECG measurements and PK samples collected on Day −7 to Day −4 and during Cycle 1.

[2] = test system: advanced solid tumours (CRC, HGSOC, NSCLC, mCRPC, HNSCC); test: Tumour response by RECIST 1.1; type: in vivo, human
Method: Radiologic tumour assessments were carried out every 8 weeks, and clinical evaluations and serum tumour markers assessed every 4 weeks. Tumours were assessed using the Response Evaluation Criteria in Solid Tumors version 1.1 (RECIST 1.1). Clinical response data were summarized in cohorts defined by tumour type (CRC, HGSOC, NSCLC, mCRPC, HNSCC, or other disease). The Safety Evaluable population included all patients who received at least one dose of SRA737. The Response Evaluable population included patients who had measurable disease at baseline, received at least 75% of planned SRA737 doses in Cycle 1 and had at least one post-baseline disease assessment or discontinued treatment due to disease progression, adverse event, or death.

[3] = Preliminary in vitro solubility studies of SRA737 citrate drug product; type: physicochemical; conditions: over the physiological range
Chk1 = test system: Chk1; parameters: method as in printed; conditions: previously shown in preclinical experiments; ref not given; cited from earlier work
[4] = 600 mg, repeat doses, N 7, plasma, mean ± standard deviation
[5] = 800 mg, repeat doses, N 31, plasma, mean ± standard deviation
[6] = 1000 mg, repeat doses, N 16, plasma, mean ± standard deviation
[7] = single SRA737 dose, at or above the dose level of 300 mg QD

For `N#Cc1cnc(Nc2cc(NC[C@H]3CNCCO3)c(C(F)(F)F)cn2)cn1` [SRA737, (R)-5-((4-((morpholin-2-ylmethyl)amino)-5-(trifluoromethyl)pyridin-2-yl)amino)pyr azine-2-carbonitrile], which “Systemic exposure (Cmax and AUC) between dose levels” value ([1]; 600 mg vs 1000 mg dose levels) is on record?
Its value is “tended to be comparable”.

And the CL/F [1, 4]?
The CL/F was 26.9 ± 2.85 L/h.

And the Cmin [1, 4]?
The Cmin was 0.23 ± 0.123 µg/mL.

And the “Exposure relative to minimum effective concentration extrapolated from preclinical models” value ([1]; 800 mg QD and 1000 mg QD)?
Its value is “exceeded the minimum effective concentration”.

What about the Cmin ([1]; 800 mg QD, repeat doses, N 31, plasma, mean ± standard deviation) of the same compound?
The Cmin was 0.312 µg/mL and 0.312 ± 0.166 µg/mL.

What about the CL/F [1, 5] of the same compound?
The CL/F was 38.0 ± 22.2 L/h.

What about the CL/F [1, 6] of the same compound?
Its CL/F is 39.7 ± 9.20 L/h.

And the Cmin [1, 6]?
The Cmin was 0.499 ± 0.185 µg/mL.

What about the Cmax [1, 4] of the same compound?
The Cmax was 2.47 ± 0.328 µg/mL.

What about the AUC(0-t) [1, 4] of the same compound?
The AUC(0-t) was 22.1 ± 2.45 µg·h/mL.

What about the Cmax [1, 5] of the same compound?
The Cmax was 2.48 ± 0.679 µg/mL.

And the AUC(0-t) [1, 5]?
The AUC(0-t) was 24.7 ± 8.58 µg·h/mL.

What about the Cmax [1, 6] of the same compound?
Its Cmax is 2.49 ± 0.666 µg/mL.

And the AUC(0-t) [1, 6]?
The AUC(0-t) was 27.2 ± 9.21 µg·h/mL.

What about the Tmax ([1]; 600 mg, repeat doses on C1D8, C1D22, C2D8, C2D15 or C2D22, N 7, plasma, median (minimum-maximum), read-out: tmax) of the same compound?
The Tmax was 2 h.

What about the Vd/F ([1]; 600 mg, repeat doses, N 7, plasma, mean ± standard deviation, read-out: Vd/F) of the same compound?
The Vd/F was 320 ± 61.1 L.

And the half-life ([1]; 600 mg, repeat doses, N 7, plasma, mean ± standard deviation, read-out: t½ (converted))?
The half-life was 8.22 ± 1.27 h.

What about the Tmax ([1]; 800 mg, repeat doses on C1D8, C1D22, C2D8, C2D15 or C2D22, N 31, plasma, median (minimum-maximum), read-out: tmax) of the same compound?
Its Tmax is 2 h.

And the Vd/F ([1]; 800 mg, repeat doses, N 31, plasma, mean ± standard deviation, read-out: Vd/F)?
The Vd/F was 454 ± 299 L.

And the half-life ([1]; 800 mg, repeat doses, N 31, plasma, mean ± standard deviation, read-out: t½ (converted))?
Its half-life is 8.25 ± 1.17 h.

And the Tmax ([1]; 1000 mg, repeat doses on C1D8, C1D22, C2D8, C2D15 or C2D22, N 16, plasma, median (minimum-maximum), read-out: tmax)?
Its Tmax is 2 h.

What about the Vd/F ([1]; 1000 mg, repeat doses, N 16, plasma, mean ± standard deviation, read-out: Vd/F) of the same compound?
The Vd/F was 477 ± 87 L.

And the half-life ([1]; 1000 mg, repeat doses, N 16, plasma, mean ± standard deviation, read-out: t½ (converted))?
The half-life was 8.45 ± 1.06 h.

What about the half-life ([1]; 1000 mg, repeated doses of 600, 800 and 1000 mg QD, read-out: Estimated elimination half-life (t½) values, range) of the same compound?
Its half-life is 6.23 to 10.4 h.

What about the Tmax ([1]; 1000 mg, repeated doses of 600, 800 and 1000 mg QD, read-out: Tmax, generally occurred) of the same compound?
Its Tmax is 2 to 4 h.

What about the Tmax ([1]; 1000 mg, repeated doses of 600, 800 and 1000 mg QD, read-out: Tmax, ranged) of the same compound?
The Tmax was 1 to 6 h.

What about the Vd/F ([1]; 1000 mg, repeated doses of 600, 800 and 1000 mg QD, read-out: individual apparent volume of distribution (Vd/F) values, range) of the same compound?
The Vd/F was 215 to 1590 L.

What about the “time plasma concentration of 100 nM (37.9 ng/mL) was achieved, all patients” value [1, 7] of the same compound?
The value was “at least 24 h”.

And the “time plasma concentration of 100 nM (37.9 ng/mL) was achieved, majority of patients” value [1, 7]?
Its value is “up to 48 h”.

And the “disease control rate (at least four cycles with at least stable disease as best response)” value (“disease control rate” below) ([2]; HGSOC, 11/26)?
Its value is 42.3%.

And the “disease control rate” value ([2]; HNSCC, 3/4)?
Its value is 75.0%.

And the “disease control rate” value ([2]; NSCLC, 3/8)?
Its value is 37.5%.

And the “patients with reduction or no increase in sum of RECIST target tumour diameters and/or stable disease for 4 or more cycles” value ([2]; in vivo)?
Its value is 29 patients.

What about the “reductions in tumour size” value ([2]; in vivo) of the same compound?
Its value is “up to 29 % reduction”.

And the “disease control rate” value ([2]; mCRPC, 8/13)?
Its value is 61.5%.

What about the “RECIST responses (complete or partial)” value ([2]; monotherapy, expansion cohort patients with predefined genetic mutations) of the same compound?
The value was “no complete or partial RECIST responses; also recorded: no partial or complete RECIST responses”.

And the pH-dependent solubility [3]?
Its pH-dependent solubility is “minimal to moderate pH-dependent solubility”.

What about the “minimally effective concentration to inhibit Chk1” value (Chk1) of the same compound?
Its value is 100 nM and 37.9 ng/mL.
